{"source": "patent US20250152559A1", "about": "“METHODS FOR TREATING MYC-AMPLIFIED CANCER” (The Governing Council of the University of Toronto, priority 2023, published 2025)", "key": {"D425": {"tested_on": "D425", "test": "PrestoBlue cell viability, 72-hour treatment, limiting dilution", "format": "cell-based", "conditions": "Homo sapiens, read-out: BAY2402234 IC50; D425, G3MB-MYC", "method": "(§1) SU_MB002, NSC194, NSC197 and NSC201FT, MBT375 and MED411FHTC were maintained in Neurocult Complete (NCC) media (Stem Cell Technologies; catalogue #05751). D425 and D458 were maintained in Dulbecco's […] (DMEM) containing 10% fetal bovine serum (FBS). HD-MB03 were maintained in NCC containing 10% FBS. All cell lines were conditioned in NCC for a minimum of 48 hours before experimentation. SU_MB002 and HD-MB03 G3MB-MYC PDOX were obtained from collaborators as kind gifts and are frequently passaged in vivo. SU_MB002, a treatment-refractory group 3 MB acquired at autopsy was received from Dr. Yoon-Jae Cho. Dr. Till Milde provided HD-MB03, a treatment-naïve group 3 MBs. ICB1299 group 4 MB cells were obtained as a gift from Silvia Marino's laboratory^62. MBT375 was established in-house from a surgical specimen of group 4 MB, which was engrafted in the cerebellum of mice for serial propagation. Nanostring genotyping was used to confirm group 4 medulloblastoma identity. MED411FHTC PDOX were procured from Dr. Olson's brain tumor research lab. D425 and D458 were obtained from the ATCC. All cell lines were fingerprint verified by short tandem repeat (STR) profiling. NSC194, NSC197 and NSC201FT were derived in-house from donor fetal brain tissues^63.\n(§2) For assessment of viability, cells were seeded into 96-well plates at a density of 1,000 cells per well. Viability was measured by adding PrestoBlue™ diluted 1:10 (ThermoFisher Scientific; Catalogue #A13261) followed by a 4-hour incubation. Relative fluorescence intensity was determined via background correction. To assess tumorsphere forming capacity, cells were seeded at a low density (200 cells per well) and incubated for 3-5 days. Tumorspheres were manually counted thereafter."}, "D458": {"tested_on": "D458", "test": "PrestoBlue cell viability, 72-hour treatment, limiting dilution", "format": "cell-based", "conditions": "Homo sapiens, read-out: BAY2402234 IC50; D458, G3MB-MYC", "method": "as §1, §2"}, "HD-MB03": {"tested_on": "HD-MB03", "test": "PrestoBlue cell viability, 72-hour treatment, limiting dilution", "format": "cell-based", "conditions": "Homo sapiens, read-out: BAY2402234 IC50; HD-MB03, G3MB-MYC", "method": "as §1, §2"}, "MED411-FHTC": {"tested_on": "MED411-FHTC", "test": "PrestoBlue cell viability, 72-hour treatment, limiting dilution", "format": "cell-based", "conditions": "Homo sapiens, read-out: BAY2402234 IC50, G3MB-MYC", "method": "as §1, §2"}, "[1]": {"test": "Parallel artificial membrane permeability assay (PAMPA) for blood-brain barrier", "format": "in vitro ADME", "description": "The capacity of BQR and BAY to permeate the blood-brain barrier was first examined using the in vitro parallel artificial membrane permeability assay (PAMPA)^48 (FIG. 5A)."}, "HD-MB03 PDOX": {"tested_on": "HD-MB03 PDOX", "test": "Orthotopic PDOX model, IVIS bioluminescence and survival", "format": "in vivo, mice", "conditions": "HD-MB03, regimens R1 and R2 vs vehicle", "method": "(§3) The treatment-naïve, patient-derived cell line, HD-MB03, was orthotopically engrafted into immunocompromised mice. Four days later, tumors were readily detectible via bioluminescence imaging. Thereafter mice were randomized into three cohorts, which were treated with either the vehicle or one of two BAY treatment regimens (R1 and R2; FIG. 5B).\n(§4) PDOX were generated by engrafting 25,000 tumor cells (both SU_MB002 and HD-MB03 cell lines), suspended in 5 μL PBS, directly into the mouse cerebrum. Flank xenografts were generated by engrafting 2,000,000 tumor cells suspended in a 100 μL solution of PBS/Matrigel® (1:1 v/v). For preclinical studies, cells were engineered to express enhanced firefly luciferase. […] Flank tumors were isolated at matched time points and formalin fixed for 48 hours, paraffin embedded (FFPE) and sectioned for follow-up analysis. Tumor area was manually measured in H&E-stained sections of FFPE tissues using ImageJ.\n(§5) For imaging via the in vivo imaging system (IVIS), mice were sedated with isoflurane gas and then administered luciferin substrate (150 mg/kg in PBS) via subcutaneous injection. After 10 minutes, bioluminescent signal (photons per second; p/s) was quantified using Living Image software."}, "SU_MB002 PDOX": {"tested_on": "SU_MB002 PDOX", "test": "Orthotopic PDOX model, tumor burden and survival", "format": "in vivo, mice", "conditions": "orthotopic SU_MB002, BAY R1", "method": "as §3, §4, §5"}, "HD-MB03 flank xenograft": {"tested_on": "HD-MB03 flank xenograft", "test": "Subcutaneous flank xenograft, IVIS, H&E and Ki67 IHC", "format": "in vivo, mice", "method": "In parallel to these experiments, subcutaneous flank xenografts were engrafted into two cohorts of mice, which were treated with the vehicle or R2. […] To investigate the pharmacokinetics of BAY in vivo, its concentration in plasma and brain tissues of healthy mice was directly quantified using an LC-MS approach. BAY was detected in both brains and plasma of mice undergoing treatment, however the plasma concentrations exceeded those of the brain by approximately 10-fold (FIG. 5H-I). To determine whether treatment with BAY affects de novo pyrimidine biosynthesis in vivo, changes in pyrimidine metabolism were measured in the brain in comparison to tumor tissues from the flank (FIG. 5J-K). Although BAY treatment impacted de novo pyrimidine metabolism in vivo in both brain and tumor tissues, with a similar pattern observed in vitro (FIG. 4A), the effect size was stronger in peripheral tumor tissue in comparison to brain tissue. Such findings further reflect the limited capacity for BAY to accumulate within the brain.\nTo examine histological consequences of DHODH inhibition in vivo, the xenografts from the flanks of BAY- and vehicle-treated mice were surgically resected one day after administering the final dose.\nFFPE tissues were sectioned onto slides and then deparaffinized prior to analysis. Samples were stained with H&E for histological examination. In parallel, sections were blocked in 5% BSA (anti-Ki67, anti-4E-BP1 Thr37/46, anti-DHODH) or 5% NGS (anti-EGR1) and stained with primary antibody at 4° C. overnight. […]\nPDOX were generated by engrafting 25,000 tumor cells (both SU_MB002 and HD-MB03 cell lines), suspended in 5 μL PBS, directly into the mouse cerebrum. […] Tumor area was manually measured in H&E-stained sections of FFPE tissues using ImageJ.\nas §5"}, "[2]": {"tested_on": "p-4EBP1 and EGR1 expression in PDOX", "test": "IHC of time-matched PDOX from brains of treated mice", "format": "in vivo", "conditions": "PDOX after final dose, vs vehicle-treated PDOX", "method": "To determine whether mechanisms identified in vitro extend to the in vivo orthotopic model, time-matched PDOX were isolated from the brains of BAY-treated mice after the final dose of BAY was administered. […] An infrequent EGR1^+ subpopulation of tumor cells was also detected, which varied in the levels of nuclear EGR1 expression (FIG. 10H).\nFFPE tissues were sectioned onto slides and then deparaffinized prior to analysis. Samples were stained with H&E for histological examination. In parallel, sections were blocked in 5% BSA (anti-Ki67, anti-4E-BP1 Thr37/46, anti-DHODH) or 5% NGS (anti-EGR1) and stained with primary antibody at 4° C. overnight. Rabbit anti-Ki67 (Thermo Fisher Scientific; Catalogue #RM-9106-S0) was diluted 1:100, rabbit anti-EGR1 (Cell Signaling Technologies; catalogue #4145) was diluted 1:200, rabbit anti-4E-BP1 Thr37/46 (Cell Signaling Technologies; catalogue #2855) was diluted 1:1000, and rabbit anti-DHODH (Proteintech 14877-1-AP) was diluted 1:200. Anti-rabbit HRP-conjugated secondary antibodies (Abcam; Catalogue #ab214880) were used with DAB for development (Vector Laboratories; Catalogue #SK-4100). All slides were scanned using Image Scope (Aperio)."}}, "data": [{"smiles": "CCn1c(CO)nn(-c2cc(O[C@@H](C)C(F)(F)F)c(C(=O)Nc3c(F)cccc3Cl)cc2F)c1=O", "note": "[BAY2402234]", "values": [{"measurement": "IC50", "setting": "D425", "result": 0.494, "unit": "nM"}, {"measurement": "IC50", "setting": "D458", "result": 0.26, "unit": "nM"}, {"measurement": "IC50", "setting": "HD-MB03", "result": 0.243, "unit": "nM"}, {"measurement": "IC50", "setting": "MED411-FHTC", "result": 0.626, "unit": "nM"}, {"measurement": "penetration coefficient (log PE)", "setting": "[1]", "result": "superior penetration coefficient (log PE) compared to BQR"}, {"measurement": "overall survival", "setting": "HD-MB03 PDOX", "result": "prolonged overall survival"}, {"measurement": "PDOX growth (IVIS bioluminescence)", "setting": "HD-MB03 PDOX; oral gavage", "result": "significantly attenuated"}, {"measurement": "overall survival", "setting": "SU_MB002 PDOX", "result": "increased overall survival"}, {"measurement": "tumor burden", "setting": "SU_MB002 PDOX", "result": "reduced tumor burden"}, {"measurement": "antitumoral response of flank tumors compared to orthotopic xenografts", "setting": "HD-MB03 flank xenograft; HD-MB03 flank, R2", "result": "much stronger antitumoral response"}, {"measurement": "tumor cell density (H&E)", "setting": "HD-MB03 flank xenograft; flank xenografts resected one day after final dose, vs vehicle", "result": "remarkably reduced"}, {"measurement": "Ki67 expression (IHC) in surviving tumor cells", "setting": "HD-MB03 flank xenograft; residual flank xenograft tissues", "result": "reduction in Ki67 expression"}, {"measurement": "EGR1 expression (IHC)", "setting": "[2]", "result": "induced EGR1 expression"}, {"measurement": "p-4EBP1 expression (IHC)", "setting": "[2]", "result": "decreased p-4EBP1 expression"}]}]}
